Data reported in ChEMBL document CHEMBL5370621, “Design, Synthesis, and Biological Evaluation of Novel Thioureidobenzamide (TBA) Derivatives as HBV Capsid Assembly Modulators” (J Med Chem, 2023).
Active and inactive are the calls of the source. The calls are words filed in the database; no cut-off is given here.

Assays:
[1] = Selectivity index, ratio of CC50 for cytotoxicity against human HePAD38 cells to EC50 for antiviral activity against Hepatitis B virus infected in human HePAD38 cells; assay type: toxicity, cell-based; details: read-out: Ratio CC50/EC50
[2] = Cytotoxicity against human HePAD38 cells assessed as reduction in cell viability incubated for 72 hrs by CCK8 assay; assay type: toxicity, cell-based
Core antigen = Core antigen (Hepatitis B virus, UniProt Q03732); experiment: Inhibition of fluorescent-labeled capsid assembly in Hepatitis B virus incubated for 1 hr by fluorescence based analysis
Chain of Core antigen (Q03732 whole entry): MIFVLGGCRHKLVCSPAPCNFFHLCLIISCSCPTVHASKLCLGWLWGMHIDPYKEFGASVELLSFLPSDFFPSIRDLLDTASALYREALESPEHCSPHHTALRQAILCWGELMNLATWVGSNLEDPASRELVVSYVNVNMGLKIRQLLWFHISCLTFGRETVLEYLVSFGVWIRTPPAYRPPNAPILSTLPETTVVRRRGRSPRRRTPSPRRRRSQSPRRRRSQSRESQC

Hepatitis B virus [3] = experiment: Antiviral activity against Hepatitis B virus infected in human HePAD38 cells assessed as inhibition of viral DNA replication by qPCR analysis; assay type: functional, organism-based
[4] = Intrinsic clearance in human liver microsomes at 100 uM preincubated for 10 mins followed by incubation with NADPH regenerating system for 30 mins and measured per mg protein by LC-MS/MS analysis; assay type: ADME, Microsome; details: time 40 min, read-out: CLH
[5] = Cmax in Sprague-Dawley rat at 2 mg/kg, iv by LC-MS/MS analysis; assay type: ADME, organism-based; design: dose 2 mg/kg, route iv; details: in vivo
[6] = MRT(0 to t) in Sprague-Dawley rat at 20 mg/kg, po by LC-MS/MS analysis; assay type: ADME, organism-based; details: in vivo
[7] = MRT(0 to infinity) in Sprague-Dawley rat at 20 mg/kg, po by LC-MS/MS analysis; assay type: ADME, organism-based; details: in vivo
[8] = Hepatotoxicity in C57BL/6J mouse infected with Hepatitis B virus assessed as serum AST level at 25 mg/kg/day, po for 18 days by colorimetry; assay type: toxicity, organism-based; details: in vivo, 432 h, time 18 day
[9] = Half life in human plasma at 100 uM by LC-MS/MS analysis; assay type: ADME, cell-free
[10] = Volume of distribution at steady state in Sprague-Dawley rat at 2 mg/kg, iv by LC-MS/MS analysis; assay type: ADME, organism-based; details: in vivo
[11] = Hepatotoxicity in C57BL/6J mouse infected with Hepatitis B virus assessed as serum ALT level at 25 mg/kg/day, po for 18 days by colorimetry; assay type: toxicity, organism-based; details: in vivo, 432 h, time 18 day
[12] = Metabolic stability of the compound in human liver microsomes assessed as parent compound remaining at 100 uM incubated for 60 mins in absence of NADPH by LC-MS/MS analysis; assay type: ADME, Microsome; details: read-out: Stability
[13] = Oral bioavailability in Sprague-Dawley rat at 20 mg/kg by LC-MS/MS analysis; assay type: ADME, organism-based; details: in vivo
[14] = Half life in Sprague-Dawley rat at 20 mg/kg, po by LC-MS/MS analysis; assay type: ADME, organism-based; details: in vivo
Hepatitis B virus [15] = experiment: Antiviral activity against Hepatitis B virus infected in C57BL/6J mouse assessed as reduction in HBsAg level in serum at 25 mg/kg/day, po for 18 days by ELISA; assay type: functional, organism-based; details: time 18.0 day
[16] = AUC(0 to infinity) in Sprague-Dawley rat at 20 mg/kg, po by LC-MS/MS analysis; assay type: ADME, organism-based; design: dose 20 mg/kg, route po; details: in vivo
[17] = Cmax in Sprague-Dawley rat at 20 mg/kg, po by LC-MS/MS analysis; assay type: ADME, organism-based; design: dose 20 mg/kg, route po; details: in vivo
Hepatitis B virus [18] = experiment: Antiviral activity against Hepatitis B virus infected in C57BL/6J mouse assessed as reduction in HBcAg expression […] at 25 mg/kg/day, po for 18 days by immunohistochemistry; assay type: functional, organism-based; details: time 18.0 day
Hepatitis B virus [19] = experiment: Antiviral activity against Hepatitis B virus infected in human HLCZ01 cells assessed as inhibition of HBV virion production by measuring inhibition of viral DNA replication incubated for 6 days by qPCR analysis; assay type: functional, organism-based
[20] = Cytotoxicity against human HLCZ01 cells assessed as reduction in cell viability upto 30 uM incubated for 72 hrs by CCK8 assay; assay type: toxicity, cell-based; details: hlcz01, 72 h
Hepatitis B virus [21] = experiment: Antiviral activity against Hepatitis B virus infected in C57BL/6J mouse assessed as inhibition of viral DNA level in serum at 25 mg/kg/day, po for 18 days by qPCR analysis; assay type: functional, organism-based; details: time 18.0 day
[22] = Metabolic stability of the compound in human liver microsomes assessed as parent compound remaining at 100 uM incubated for 60 mins in presence of NADPH by LC-MS/MS analysis; assay type: ADME, Microsome; details: read-out: Stability
[23] = MRT(0 to t) in Sprague-Dawley rat at 2 mg/kg, iv by LC-MS/MS analysis; assay type: ADME, organism-based; details: in vivo
[24] = Half life in human liver microsomes at 100 uM preincubated for 10 mins followed by incubation with NADPH regenerating system for 30 mins by LC-MS/MS analysis; assay type: ADME, Microsome; details: time 40 min
[25] = AUC(0 to t) in Sprague-Dawley rat at 2 mg/kg, iv by LC-MS/MS analysis; assay type: ADME, organism-based; design: dose 2 mg/kg, route iv; details: in vivo
[26] = AUC(0 to t) in Sprague-Dawley rat at 20 mg/kg, po by LC-MS/MS analysis; assay type: ADME, organism-based; design: dose 20 mg/kg, route po; details: in vivo
Hepatitis B virus [27] = experiment: Antiviral activity against Hepatitis B virus infected in human HLCZ01 cells assessed as reduction in HBsAg level at 0.03 to 3 uM incubated for 6 days by ELISA; assay type: functional, organism-based; details: dose 0.03-3 µM, time 6.0 day
[28] = Tmax in Sprague-Dawley rat at 20 mg/kg, po by LC-MS/MS analysis; assay type: ADME, organism-based; details: in vivo
[29] = AUC(0 to infinity) in Sprague-Dawley rat at 2 mg/kg, iv by LC-MS/MS analysis; assay type: ADME, organism-based; design: dose 2 mg/kg, route iv; details: in vivo
[30] = Half life in Sprague-Dawley rat at 2 mg/kg, iv by LC-MS/MS analysis; assay type: ADME, organism-based; details: in vivo

Cc1cc(NC(=O)c2cc(NC(=S)NC(C)C)c(F)cc2Br)ccc1F
selectivity ratio [1]: > 714
CC50 at 72 h [2]: > 100000 nM
IC50 (Core antigen): 940 nM
EC50 (Hepatitis B virus [3]): 140 nM

O=C(O)Cc1ccccc1Nc1c(Cl)cccc1Cl [DICLOFENAC]
microsomal CLint at 100 µM [4]: 257 µL/min/mg

O=C(Nc1cc(F)c(F)c(F)c1)c1ccc(F)c(S(=O)(=O)N2CCC(O)CC2)c1
selectivity ratio [1]: 47.6
CC50 at 72 h [2]: 16700 nM
IC50 (Core antigen): 1530 nM
EC50 (Hepatitis B virus [3]): 350 nM

O=C(Nc1cc(F)c(F)c(F)c1)c1cc(S(=O)(=O)NC2CCCC2)c(F)cc1Br
selectivity ratio [1]: 313
CC50 at 72 h [2]: 34500 nM
EC50 (Hepatitis B virus [3]): 110 nM

Cc1cc(NC(=O)c2cc(NC(=O)C(=O)NC3CC3)c(F)cc2Br)ccc1F
selectivity ratio [1]: 25.3
CC50 at 72 h [2]: 17000 nM
EC50 (Hepatitis B virus [3]): 670 nM

Cc1cc(NC(=O)c2cc(NC(=O)NCc3ccc(O)cc3)c(F)cc2Br)ccc1F
selectivity ratio [1]: 16.6
CC50 at 72 h [2]: 1990 nM
EC50 (Hepatitis B virus [3]): 120 nM

Cc1cc(NC(=O)c2cc(NC(=O)c3cc(F)c(F)c(F)c3)c(F)cc2Br)ccc1F
selectivity ratio [1]: 21.8
CC50 at 72 h [2]: 18100 nM
EC50 (Hepatitis B virus [3]): 830 nM

Cc1cc(NC(=O)c2cc(NC(=O)NC3CCC(O)CC3)c(F)cc2Br)ccc1F (configuration not stated)
selectivity ratio [1]: > 13.6
CC50 at 72 h [2]: > 100000 nM
EC50 (Hepatitis B virus [3]): 7330 nM

COc1ccc(CNC(=O)Nc2cc(C(=O)Nc3ccc(F)c(C)c3)c(Br)cc2F)cc1
selectivity ratio [1]: 56.1
CC50 at 72 h [2]: 4880 nM
EC50 (Hepatitis B virus [3]): 87 nM

CCOC(=O)C1=C(CN2CCOCC2)NC(c2nccs2)=N[C@H]1c1ccc(C)cc1Br
selectivity ratio [1]: > 5920
CC50 at 72 h [2]: > 100000 nM
IC50 (Core antigen): 860 nM
EC50 (Hepatitis B virus [3]): 17 nM

Cc1cc(NC(=O)c2cc(NC(=O)NC(C)C)c(F)cc2Br)ccc1F
selectivity ratio [1]: 16.6
CC50 at 72 h [2]: 19100 nM
EC50 (Hepatitis B virus [3]): 1150 nM

C=CCNC(=S)Nc1cc(C(=O)Nc2ccc(F)c(C)c2)c(C)cc1F
Cmax [5]: 5390 ng/mL
MRT last [6]: 3.16 h
MRT inf [7]: 3.26 h
Activity [8]: Non-Toxic
half-life at 100 µM [9]: 0.9 h
Vdss [10]: 0.51 L/kg
selectivity ratio [1]: 2210
Activity [11]: Non-Toxic
CC50 at 72 h [2]: 26600 nM
remaining at 1 h, 100 µM [12]: 72.6%
bioavailability [13]: 67.7%
half-life [14]: 1.67 h
Activity (Hepatitis B virus [15]): inactive
IC50 (Core antigen): 880 nM
AUC(0-inf) [16]: 22000 ng·h/mL
EC50 (Hepatitis B virus [3]): 12 nM
Cmax [17]: 4770 ng/mL
microsomal CLint at 100 µM [4]: 36.4 µL/min/mg
Activity (Hepatitis B virus [18]): Active
EC50 (Hepatitis B virus [19]; HLCZ01, 144 h): 33 nM
Activity (Hepatitis B virus [19]; time 6.0 day): Dose-Dependent Effect
Activity [20]: Non-Toxic
Activity (Hepatitis B virus [21]): Active
remaining at 1 h, 100 µM [22]: 31.2%
MRT last [23]: 0.82 h
half-life at 100 µM [24]: 0.635 h
AUC(0-t) [25]: 3260 ng·h/mL
AUC(0-t) [26]: 22000 ng·h/mL
Activity (Hepatitis B virus [27]): inactive
Tmax [28]: 1.83 h
AUC(0-inf) [29]: 3260 ng·h/mL
half-life [30]: 0.98 h

C=CC(=O)Nc1cc(C(=O)Nc2ccc(F)c(C)c2)c(Br)cc1F
selectivity ratio [1]: 3.59
CC50 at 72 h [2]: 7980 nM
EC50 (Hepatitis B virus [3]): 2220 nM

Cc1cc(NC(=O)c2cc(S(=O)(=O)NC3CCCC3)c(F)cc2Br)ccc1F
selectivity ratio [1]: > 227
CC50 at 72 h [2]: > 100000 nM
EC50 (Hepatitis B virus [3]): 440 nM
